Measured values: patent publication EP4803513A1, “SUBSTITUTED QUINAZOLINE COMPOUND, PREPARATION METHOD THEREFOR, PHARMACEUTICAL COMBINATION THEREOF, AND USE THEREOF” (Hongyun Biotech Co., Ltd., priority 2023, dated 2025)

Experiments:
Assay type in all cases: cell-based
T47D cells = assay: Cell antiproliferative activity assay (CCK-8), T47D; details: Homo sapiens, 72 h, breast cancer cell line T47D, incubation for 3 days
Procedure: (§1) BRK-BaF3, WT-BaF3, WEHI cell line, and breast cancer cell line T47D were cultured using RPMI 1640 Basal medium or DMEM (Dulbecco's Modified Eagle Medium) (Shanghai Peiyuan Biotechnology, L220KJ), supplemented with 10% FBS (Gibco, REF 10099-141C) and 1% P/S (Shanghai Peiyuan Biotechnology, S110JV), in an incubator (Thermo 3020) at 37°C with 5% CO2. Cell viability was above 95%. Cells were passaged at a 3:1 ratio every 3-4 days. For WT-BaF3 cells, WEHI cells were first cultured, and their culture supernatant was filtered through a 0.22 µm filter. This supernatant was added at 10% to the regular culture medium to supplement IL-3 required for WT-BaF3 cell proliferation, which served as the culture medium for WT-BaF3. For testing, cells were first collected and counted, then prepared into a cell suspension at 100,000 cells/mL and plated at 100 µL per well. Drug concentrations started from 10 µM and were serially diluted 3:1. After incubation for 3 days, 20 µL of CCK-8 detection reagent (Targetmol C005) was added to each well. After incubation for 2-4 hours, OD450 was measured using a microplate reader (Varioskan LUX, Thermo Scientific). After subtracting the blank background, the curve was fitted and the IC50 was calculated using XLfit software.
In addition, the following table exemplarily lists the IC50 values of some compounds of the present invention against T47D cells.

WT-BaF3 cells = assay: Cell antiproliferative activity assay (CCK-8), WT-BaF3 (broad-spectrum cytotoxicity); details: 72 h; WT-BaF3 cells (IL-3 supplemented), CCK-8, 3 days incubation
Procedure: The activity of compounds against BRK kinase can be evaluated by their inhibition of the growth of the BRK kinase-stably transfected BaF3 cell line (BRK-BaF3) and wild-type BaF3 cells (WT-BaF3). […] The larger the ratio of the half-maximal growth inhibitory concentration (IC50) of a compound between WT-BaF3 and BRK-BaF3 cells, the better the selectivity of the compound.
as §1

BRK-BaF3 cells = assay: Cell antiproliferative activity assay (CCK-8), BRK-BaF3; details: 72 h, CCK-8, 3 days incubation
Summary of the method: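 Growth inhibition over 3 days, with compound serially diluted 3-fold from a 10 µM top concentration. Cells seeded at 100,000 cells/mL; WT-BaF3 medium carried 10% WEHI supernatant as the IL-3 source. Viability read by CCK-8 OD450 after 2-4 h; IC50 from blank-subtracted curve fit.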

Compound	IC50 (T47D cells)	IC50 (WT-BaF3 cells)	IC50 (BRK-BaF3 cells)
Cc1nn(CCO)cc1Nc1ncc2cc(-c3ccnc(N)c3)cc(C(C)C)c2n1 [I-14]	500 to 1000 nM	500 to 2500 nM	≤ 20 nM
Cc1nn(CCO)cc1Nc1ncc2cc(-c3cccnc3C)cc(C(C)C)c2n1 [I-22]	500 to 1000 nM	500 to 2500 nM	≤ 20 nM
Cc1nn(CCO)cc1Nc1ncc2cc(-c3cccnc3N)cc(C(C)C)c2n1 [I-27]	500 to 1000 nM	500 to 2500 nM	≤ 20 nM
Cc1ccncc1-c1cc(C(C)C)c2nc(Nc3cn(CCO)nc3C)ncc2c1 [I-32]	≤ 500 nM	500 to 2500 nM	≤ 20 nM
Cc1nn(CCO)cc1Nc1ncc2cc(-c3cncc(F)c3C)cc(C(C)C)c2n1 [I-36]	≤ 500 nM	500 to 2500 nM	≤ 20 nM
Cc1ccc(-c2cc(C(C)C)c3nc(Nc4cn(CCO)nc4C)ncc3c2)c(F)n1 [I-39]	≤ 500 nM	100 to 500 nM	20 to 100 nM
Cc1nn(CCO)cc1Nc1ncc2cc(-c3cc(F)cnc3C)cc(C(C)C)c2n1 [I-41]	500 to 1000 nM	> 2500 nM	≤ 20 nM
Cc1ccnc(F)c1-c1cc(C(C)C)c2nc(Nc3cn(CCO)nc3C)ncc2c1 [I-46]	≤ 500 nM	500 to 2500 nM	≤ 20 nM
Cc1nn(CCO)cc1Nc1ncc2cc(-c3c(F)ccnc3N)cc(C(C)C)c2n1 [I-48]	500 to 1000 nM	> 2500 nM	≤ 20 nM
Cc1nn(CCCO)cc1Nc1ncc2cc(-c3cccnc3)cc(C(C)C)c2n1 [I-53]	≤ 500 nM	500 to 2500 nM	≤ 20 nM
CC(C)c1cc(-c2cccnc2)cc2cnc(Nc3cn(CCO)nc3C(F)F)nc12 [I-54]	500 to 1000 nM	500 to 2500 nM	≤ 20 nM
CC(C)c1cc(-c2cccnc2)cc2cnc(Nc3cn(CCO)nc3Cl)nc12 [I-55]	≤ 500 nM	500 to 2500 nM	≤ 20 nM
Cc1ccncc1-c1cc(C(C)C)c2nc(Nc3cn(CC(C)(C)O)nc3C)ncc2c1 [I-56]	≤ 500 nM	500 to 2500 nM	≤ 20 nM
Cc1nn(CC(C)(C)O)cc1Nc1ncc2cc(-c3cccnc3C)cc(C(C)C)c2n1 [I-57]	500 to 1000 nM	100 to 500 nM	≤ 20 nM
Cc1ccncc1-c1cc(C(C)C)c2nc(Nc3cnn(CCO)c3C)ncc2c1 [I-59]	≤ 500 nM	> 2500 nM	≤ 20 nM
Cc1nccnc1-c1cc(C(C)C)c2nc(Nc3cn(CCO)nc3Cl)ncc2c1 [I-98]	500 to 1000 nM	500 to 2500 nM	≤ 20 nM
Cc1ccnnc1-c1cc(C2CC2)c2nc(Nc3cn(CCO)nc3C)ncc2c1 [I-119]	500 to 1000 nM	500 to 2500 nM	≤ 20 nM
COc1ncncc1-c1cc(C(C)C)c2nc(Nc3cn(CCO)nc3C)ncc2c1 [I-125]	500 to 1000 nM	> 2500 nM	≤ 20 nM
Cc1ncnc(C)c1-c1cc(C(C)C)c2nc(Nc3cnn(CCO)c3)ncc2c1 [I-140]	500 to 1000 nM	500 to 2500 nM	≤ 20 nM
Cc1nn(CCO)cc1Nc1ncc2cc(-c3cncnc3C)cc(C3CC3)c2n1 [I-146]	500 to 1000 nM	500 to 2500 nM	≤ 20 nM
Cc1nn(CCO)cc1Nc1ncc2cc(-c3c(C)ncnc3C)cc(C3CC3)c2n1 [I-147]	500 to 1000 nM	500 to 2500 nM	≤ 20 nM
Cc1nn(CCO)cc1Nc1ncc2cc(-c3cc(O)ccc3F)cc(C(C)C)c2n1 [I-160]	≤ 500 nM	100 to 500 nM	≤ 20 nM
Cc1ccc(C#N)cc1-c1cc(C(C)C)c2nc(Nc3cn(CCO)nc3C)ncc2c1 [I-162]	≤ 500 nM	500 to 2500 nM	≤ 20 nM
Cc1nn(CCO)cc1Nc1ncc2cc(-c3c[nH]nc3C)cc(C(C)C)c2n1 [I-187]	≤ 500 nM	500 to 2500 nM	≤ 20 nM
Cc1nn(CCO)cc1Nc1ncc2cc(-c3c(C)n[nH]c3C)cc(C(C)C)c2n1 [I-189]	500 to 1000 nM	500 to 2500 nM	≤ 20 nM
Cc1nn(CCO)cc1Nc1ncc2cc(-c3cnoc3C)cc(C(C)C)c2n1 [I-193]	≤ 500 nM	100 to 500 nM	≤ 20 nM
Cc1nccnc1-c1cc(C(C)C)c2nc(Nc3ccc(P(C)(C)=O)cc3)ncc2c1 [II-11]	≤ 500 nM	500 to 2500 nM	≤ 20 nM
Cc1nccnc1-c1cc(C(C)C)c2nc(Nc3ccc(P(C)(C)=O)cc3F)ncc2c1 [II-12]	500 to 1000 nM	> 2500 nM	20 to 100 nM
